Entries after “also recorded” stand apart in the source; their conditions may differ. Like-named read-outs stand apart in the source and are kept apart here.
Experiments:
Jurkat T cells = assay: Necrosis (CICD) of Jurkat T cells induced by Fas ligand, cycloheximide and zVAD, ATP assay; type: cell-based, human; conditions: FasL/CHX/zVAD
Description: Jurkat cells were treated with 5 ng/ml of FasL without (A) or with cyclohexamide (CHX) (B) to induce apoptosis, or 5 ng/ml FasL, 1 μg/ml of CHX and 100 μM of zVAD.fmk to induce CICD (B). […] Cell viability was determined after 24 hours of incubation with indicated reagents using CellTiter-Glo ATP assay. The values represent viability relative to the control Jurkat cells without the treatment of FasL, which was set as 100% viability.
FIG. 34A is a graph showing the results of treating Jurkat T cells with Fas ligand (5 ng/ml), cyclohexamide (1 μg/ml) and zVAD (100 μM) in the presence of the indicated amounts of anti-necrotic compounds (4) and (5). Viability was determined 36 hours later using an ATP assay. The viability values are relative to the samples lacking Fas ligand, which were used as 100% viability controls. FIG. 34B is a graph as in FIG. 34A, in which the anti-necrotic compounds are (19) and (20).
Compounds were also tested in another necrosis assay utilizing human Jurkat T cells, Fas ligand to induce cell death, and zVAD to inhibit the apoptosis pathway. After 36 hours, cell viability was measure by the commercial CellTiter ATP cell viability assay (Promega).

[1] = test system: FADD-deficient Jurkat T cells treated with TNF-α; assay: Inhibition of necroptosis (CICD) in FADD-deficient Jurkat T cells treated with TNF-α, ATP-based viability; type: cell-based, human
[2] = test system: FADD deficient Jurkat cells; conditions: compound alone
U937 cells = assay: Oxidative stress (menadione) induced death of U937 cells, ATP assay; type: cell-based, human; conditions: 250 μM menadione, 24 hours
Description: Viability of TNFα/zVAD/DMSO or manadione/DMSO blank treated cells is also shown (- - -). Viability was determined using ATP-Lite-M assay (Packard). Numbers represent percentages of live cells. The values were normalized relative to the zVAD or DMSO treated controls, which were set as 100% viability.
In this and subsequent panels, cell viability was determined via ATP assay. Numbers represent viability normalized to that of the DMSO-treated cells in the absence of TNFα and menadione. Throughout, error bars represent standard deviations. […] Representative images are shown. […] Protein lysates were subjected to western blotting with antibodies to LC3 and to tubulin. The ratio of LC3-II to tubulin signals was calculated (“Ratio”) and normalized to the value in the control sample. […] Alternatively, cells were treated with 2 μM rapamycin. […] Numbers represent viability normalized to that of the compound-treated cells in the absence of TNFα. In FIG. 28H, expression of beclin-1 (“Bec”) and tubulin (“Tub”) in the stable populations of cells in FIG. 28G was analyzed by western blotting.

[3] = Homo sapiens, Jurkat, 24 h, read-out: EC50 (μM) for inhibition of necroptosis

melting point	Compound	EC50 [1, 3]	also measured
	COc1ccc([C@H]2[C@@H]3CCc4ccc(OC)cc4C3=NN2C(C)=O)cc1 (relative stereo) [Compound 142, (3R,3aS)-rel-2-acetyl-3,3a,4,5-tetrahydro-3-(4-methoxyphenyl)-8-methoxy-2H-benz[g]indazole]		inhibition of CICD/necrosis of Jurkat cells, in words (Jurkat T cells): only the cis isomers (4) (FIG. 34A) and (19) (FIG. 34B) were found to efficiently inhibit necrosis
	COc1ccc2c(c1)C1=NN(C(C)=O)[C@@H](c3ccc(F)cc3)[C@@H]1CC2 (relative stereo) [Compound 160, (3R,3aS)-rel-2-acetyl-3,3a,4,5-tetrahydro-3-(4-fluorophenyl)-8-methoxy-2H-benz[g]indazole]	3.7 ± 0.75 µM	inhibition of CICD/necrosis of Jurkat cells, in words (Jurkat T cells): only the cis isomers (4) (FIG. 34A) and (19) (FIG. 34B) were found to efficiently inhibit necrosis
	COc1ccc2c(c1)C1=NN(C(C)=O)[C@@H](c3ccc(F)cc3)[C@H]1CC2 (relative stereo) [Compound 161, (3R,3aR)-rel-2-acetyl-3,3a,4,5-tetrahydro-3-(4-fluorophenyl)-8-methoxy-2H-benz[g]indazole]	0.96 ± 0.085 µM	inhibition of CICD/necrosis of Jurkat cells, in words (Jurkat T cells): efficiently inhibit necrosis and result in high cell viability
189 to 193 °C	COc1cc2c(cc1OC)C1=NN(C(C)=O)[C@@H](c3ccc(F)cc3)[C@H]1CC2 (relative stereo) [Compound 164, (3R,3aR)-rel-2-acetyl-3,3a,4,5-tetrahydro-3-(4-fluorophenyl)-7,8-dimethoxy-2H-benz[g]indazole]	> 100 µM	
166 to 168 °C	CC(=O)N1N=C2c3ccccc3CC[C@@H]2[C@@H]1c1ccc(F)cc1 (relative stereo) [Compound 165, (3R,3aR)-rel-2-acetyl-3,3a,4,5-tetrahydro-3-(4-fluorophenyl)-2H-benz[g]indazole]	5.4 ± 1.1 µM	
176 to 177 °C	COc1ccc2c(c1)C1=NN(C(C)=O)[C@@H](c3cccc(F)c3)[C@H]1CC2 (relative stereo) [Compound 166, (3R,3aR)-rel-2-acetyl-3,3a,4,5-tetrahydro-3-(3-fluorophenyl)-8-methoxy-2H-benz[g]indazole]	0.68 ± 0.009 µM	
257 to 260 °C	COc1ccc([C@H]2[C@H]3CCc4ccccc4C3=NN2C(C)=O)cc1 (relative stereo) [Compound 167, (3R,3aR)-rel-2-acetyl-3,3a,4,5-tetrahydro-3-(4-methoxyphenyl)-2H-benz[g]indazole]	0.84 ± 0.32 µM	
206 to 209 °C	COc1ccc2c(c1)C1=NN(C(C)=O)[C@@H](c3ccc4c(c3)OCO4)[C@H]1CC2 (relative stereo) [Compound 177, (3R,3aR)-rel-2-acetyl-3,3a,4,5-tetrahydro-3-(3,4-methylenedioxyphenyl)-8-methoxy-2H-benz[g]indazole]	2.6 ± 1.3 µM	
189 to 193 °C	COc1ccc2c(c1)C1=NN(C(C)=O)[C@@H](c3ccc4c(c3)OCCO4)[C@H]1CC2 (relative stereo) [Compound 178, (3R,3aR)-rel-2-acetyl-3,3a,4,5-tetrahydro-3-(3,4-ethylenedioxyphenyl)-8-methoxy-2H-benz[g]indazole]	2.1 ± 0.65 µM	
218 to 220 °C	CC(=O)N1N=C2c3cc(C)ccc3OC[C@H]2[C@@H]1c1ccc(F)cc1 (relative stereo) [Compound 184, (3R,3aS)-rel-2-acetyl-2,3,3a,4-tetrahydro-3-(4-fluorophenyl)-8-methyl-[1]benzopyrano[4,3-c]pyrazole]	> 100 µM	
243 to 246 °C	CC(=O)N1N=C2c3cc(C)ccc3OC[C@@H]2[C@@H]1c1ccc(F)cc1 (relative stereo) [Compound 185, (3R,3aR)-rel-2-acetyl-2,3,3a,4-tetrahydro-3-(4-fluorophenyl)-8-methyl-[1]benzopyrano[4,3-c]pyrazole]	11.6 ± 6.1 µM	
245 °C	COc1ccc2c(c1)C1=NN(C(C)=O)[C@@H](c3ccc(F)cc3)[C@H]1CO2 (relative stereo) [Compound 186, (3R,3aR)-rel-2-acetyl-2,3,3a,4-tetrahydro-3-(4-fluorophenyl)-8-methoxy-[1]benzopyrano[4,3-c]pyrazole]	4.8 ± 1.3 µM	
260 to 262 °C	COc1ccc([C@H]2[C@@H]3CCc4ccccc4C3=NN2C(C)=O)cc1 (relative stereo) [Compound 201, (3R,3aS)-rel-2-acetyl-3,3a,4,5-tetrahydro-3-(4-methoxyphenyl)-2H-benz[g]indazole]		
165 to 169 °C	COc1ccc2c(c1)C1=NN(C(C)=O)[C@@H](c3ccc4c(c3)OCO4)[C@@H]1CC2 (relative stereo) [Compound 205, (3R,3aS)-rel-2-acetyl-3,3a,4,5-tetrahydro-3-(3,4-methylenedioxyphenyl)-8-methoxy-2H-benz[g]indazole]		
194 to 197 °C	COc1ccc2c(c1)C1=NN(C(C)=O)[C@@H](c3ccc4c(c3)OCCO4)[C@@H]1CC2 (relative stereo) [Compound 206, (3R,3aS)-rel-2-acetyl-3,3a,4,5-tetrahydro-3-(3,4-ethylenedioxyphenyl)-8-methoxy-2H-benz[g]indazole]		
174 to 176 °C	COc1ccc2c(c1)C1=NN(C(C)=O)[C@@H](c3ccc(F)cc3)[C@@H]1CO2 (relative stereo) [Compound 211, (3R,3aS)-rel-2-acetyl-2,3,3a,4-tetrahydro-3-(4-fluorophenyl)-8-methoxy-[1]benzopyrano[4,3-c]pyrazole]		
	O=c1[nH]c2ccccc2c2ccccc12 [6(5H)-Phenanthridione, reference compound]		inhibition of CICD/necrosis of Jurkat cells, in words (Jurkat T cells): failed to inhibit CICD of Jurkat cells
	CN1C(=O)NC(Cc2c[nH]c3c(Cl)cccc23)C1=O (stereo not drawn) [7-Cl—O-Nec-1]		antinecroptotic (anti-CICD) activity, in words ([1]; FADD-deficient Jurkat cells, TNFα): equally potent anti-CICD activity; also recorded: possessing antinecroptotic activity in vitro similar to that of 7-Cl-Nec-1; EC50 ([1]; Jurkat FADD deficient cells treated with TNFα, read-out: EC50): 0.206 ± 0.033 µM; LD50 (nonspecific toxicity) [2]: > 1 mM
	O=C1NCCc2c(OCCCCN3CCCCC3)cccc21 [DPQ, 3,4-Dihydro-5[4(1-piperindinyl)butoxy]-1(2H)-isoquinoline, reference compound]		inhibition of CICD/necrosis of Jurkat cells, in words (Jurkat T cells): failed to inhibit CICD of Jurkat cells
	CC(=O)N[C@@H](CS)C(=O)O [N-acetyl-cysteine, reference compound]		protection from menadione induced cell death, in words (U937 cells): provided protection against menadione
	catalase [reference compound]		protection from menadione induced cell death, in words (U937 cells): provided protection against menadione
	superoxide dismutase [reference compound]		protection from menadione induced cell death, in words (U937 cells): provided protection against menadione
	vitamin E [reference compound]		protection from menadione induced cell death, in words (U937 cells): provided protection against menadione

— patent US20130158024A1, “TRICYCLIC NECROSTATIN COMPOUNDS” (priority 2005, published 2013)
